The results in this text go back to patent publication US20160237398A1, “METHODS OF MICROBIAL PRODUCTION OF EXCRETED PRODUCTS FROM METHANE AND RELATED BACTERIAL STRAINS” (UNIVERSITY OF WASHINGTON THROUGH ITS CENTER FOR …, priority 2013, published 2016).

In test [1] the test system is pyruvate kinase (pyk2, MALCv4_3080). In words: Effect of effectors on activity of purified recombinant pyruvate kinase. It is filed as biochemical, Methylomicrobium alcaliphilum 20Z. The conditions noted are these: for Relative activity: control without effector = 100; for stimulation of enzyme activity: in the presence of the RuMP pathway intermediate. The method, then:
Methanotrophic pyruvate kinase-purification and characterization.
(§1) Protein purification and characterization. Activities of key enzymes of the central metabolic pathways were measured as described. Pyruvate forming activity in cell-free extracts of M. alcaliphilus 20Z was also measured using Pyruvate Assay Kit (BioVision Inc. CA, USA). Recombinant pyruvate kinase PK-ubiqitin-His6 (“His6” disclosed as SEQ ID NO: 7) was obtained by cloning of the pyk2 gene (MALCv4_3080) in the vector pHUE and expressing in E. coli BL21 (DE3) cells growing in the presence of 0.5 mM IPTG for 5 hours at 37° C. PK-ubiqitin-His6 enzyme (“His6” disclosed as SEQ ID NO: 7) was purified by affinity chromatography on a Ni^2+-NTA column as described earlier.

For test [2], the target named is pyruvate kinase 2 from M. alcaliphilum 20Z (Methylotuvimicrobium alcaliphilum, UniProt G4T2L7). It is filed as biochemical, Methylomicrobium alcaliphilum 20Z. The conditions noted are these: in the presence of 2.5 mM ribose-5-phosphate; read-out: S0.5 (used in place of Km, non Michaelis-Menten). As to the method:
as §1

The subject of a further test is 20ZER. In words: Accumulation of extracellular metabolites by the culture with an inhibitor of the cyt bc complex. Format: cell-based, Methylomicrobium alcaliphilum. The conditions noted are these: 20ZER + antimycin, dO2 ^ 40%. The method, then:
Cultivation and growth parameters. M. alcaliphilum 20Z cells were grown using a mineral salts medium in either closed vials (50 ml culture in 250 ml vials, with shaking at 200 rpm) or bioreactor cultures (fed-batch or chemostat; 1 L working volume in a two liter bench top BioFlo™ 110 modular bioreactors, New Brunswick Scientific, Edison, N.J.). Cells were grown at 28-30° C. Optical density of cell cultures was measured on a Beckman DU® 640B spectrophotometer in plastic 1.5 mL cuvettes with a 1 cm path length. Chemostat cultures maintained a steady-state optical density at 600 nm (OD600) of approximately 2.0±0.2. […] Samples of inflow and outflow gases were either collected daily in triplicates for gas analysis or were analyzed immediately every 15 minutes using a SRI 8610C™ Gas Chromatograph connected to a bioreactor unit. The rates of methane consumption and H2 production were determined by incubating cell samples (50 ml, OD600 between 2 and 4) in closed 250 ml vials for 12-60 h at 28° C. […]

pyruvate kinase 2 from M. alcaliphilum 20Z, sequence (G4T2L7 entry or part of it): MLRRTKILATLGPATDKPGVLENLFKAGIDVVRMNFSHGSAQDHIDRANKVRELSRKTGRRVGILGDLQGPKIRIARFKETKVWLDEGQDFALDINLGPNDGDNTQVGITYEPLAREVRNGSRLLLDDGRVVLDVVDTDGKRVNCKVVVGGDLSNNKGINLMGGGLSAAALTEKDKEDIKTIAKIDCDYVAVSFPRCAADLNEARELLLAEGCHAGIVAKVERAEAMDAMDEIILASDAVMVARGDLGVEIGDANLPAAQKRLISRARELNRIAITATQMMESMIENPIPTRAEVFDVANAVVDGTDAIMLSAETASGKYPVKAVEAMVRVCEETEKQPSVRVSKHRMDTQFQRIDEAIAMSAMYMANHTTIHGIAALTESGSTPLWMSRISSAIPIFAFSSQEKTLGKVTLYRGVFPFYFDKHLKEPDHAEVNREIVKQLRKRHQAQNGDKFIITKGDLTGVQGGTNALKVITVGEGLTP

As for `O=C(O)[C@@H](CO)OP(=O)(O)O` [2-phosphoglycerate], the Relative activity in test [1] (effector 2 mM) amounted to 75%.
For `Nc1ncnc2c1ncn2[C@@H]1O[C@H](COP(=O)(O)O)[C@@H](O)[C@H]1O` [AMP], in test [1] (effector 2 mM), the Relative activity was 126%.
Consider `Nc1ncnc2c1ncn2[C@@H]1O[C@H](COP(=O)(O)OP(=O)(O)OP(=O)(O)O)[C@@H](O)[C@H]1O` [ATP], for which, in test [1], the “effect on enzyme activity” value is recorded as “strongly inhibited”. The Relative activity in test [1] (effector 0.5 mM) turned out to be 64%; in test [1] (effector 1 mM), 32%; in test [1] (effector 2 mM), 12%.
As for `O=C(O)CC(O)(CC(=O)O)C(=O)O` [Citrate], the Relative activity in test [1] (effector 1 mM) is given as 140%.
`O=C[C@H](O)[C@H](O)COP(=O)(O)O` [Erythrose-4-phosphate]: in test [1] (effector 5 mM), the Relative activity came out at 740%. Further, the “stimulation of enzyme activity” value in test [1] was 20 fold.
Take `O=C(COP(=O)(O)O)[C@@H](O)[C@H](O)[C@H](O)COP(=O)(O)O` [Fructose-1,6-bisphosphate]: in test [1] (effector 5 mM), the Relative activity stood at 158%.
Same read-out and setting: as for `O=C(COP(=O)(O)O)[C@@H](O)[C@H](O)[C@H](O)CO` [Fructose-1-phosphate], the figure is 270%.
Take `O=C(CO)[C@@H](O)[C@H](O)[C@H](O)COP(=O)(O)O` [Fructose-6-phosphate]: in test [1], the “inhibitory effect of ATP, PPi and Pi after addition of the activator” value is “completely abolished”; the “stimulation of enzyme activity” value was determined as 20 fold. Besides, in test [1] (effector 5 mM), the Relative activity was found to be 2518%.
Take `O=P(O)(O)O[C@H]1O[C@H](CO)[C@@H](O)[C@H](O)[C@H]1O` [Glucose-1-phosphate]: the Relative activity in test [1] (effector 5 mM) is recorded as 67%.
Turning to `O=C[C@H](O)[C@@H](O)[C@H](O)[C@H](O)COP(=O)(O)O` [Glucose-6-phosphate], in test [1] (effector 5 mM), the Relative activity came out at 2545%. Further, in test [1], the “stimulation of enzyme activity” value worked out at 20 fold.
For the molecule `O=C(O)CC(O)C(=O)O` (centres unmarked) [Malate], the Relative activity in test [1] (effector 1 mM) amounted to 82%.
Turning to `[Cl-].[Cl-].[Mg+2]` [MgCl2], the Km – broadly, the substrate concentration at which the rate is half of its maximum – in test [2] was determined as 1990 µM.
In the case of `O=P(O)(O)OP(=O)(O)O` [PPi, pyrophosphate], the “effect on enzyme activity” value in test [1] is given as “strongly inhibited”. The Relative activity in test [1] (effector 2 mM) is 14%.
`O=P(O)(O)O` [Pi, inorganic phosphate]: in test [1], the “effect on enzyme activity” value is on record as “strongly inhibited”. For the same molecule, the Relative activity in test [1] (effector 6 mM) stood at 11%.
With `O=P(O)(O)O[C@H]1O[C@H](CO)[C@@H](O)[C@H]1O` [Ribose-1-phosphate], the Relative activity in test [1] (effector 5 mM) worked out at 92%.
As for `O=C[C@H](O)[C@H](O)[C@H](O)COP(=O)(O)O` [Ribose-5-phosphate], in test [1], the “inhibitory effect of ATP, PPi and Pi after addition of the activator” value is “completely abolished”; the “stimulation of enzyme activity” value was 20 fold. Besides, the Relative activity in test [1] (effector 5 mM) was found to be 2092%.
For `O=C(CO)[C@H](O)[C@H](O)COP(=O)(O)O` [Ribulose-5-phosphate], the Relative activity in test [1] (effector 5 mM) was found to be 1890%. In addition, the “stimulation of enzyme activity” value in test [1] came to 20 fold.
In the case of `N[C@@H](CO)C(=O)O` [Serine], the Relative activity in test [1] (effector 1 mM) is 133%.
Consider antimycin A, for which, in the test with 20ZER, the “Accumulation of extracellular Acetate” value worked out at 3955 ± 230 μmol L^−1 g^−1 CDW and the “Accumulation of extracellular Lactate” value stood at 437 ± 30 μmol L^−1 g^−1 CDW.
